Experimental data published in patent US9487529B2, “Macrocyclic compounds as ALK, FAK and JAK2 inhibitors” (Cephalon, Inc., priority 2011, dated 2016).
Counter-ions that a name gives are not always drawn. Like-named read-outs stand apart in the source and are kept apart here.

Columns and labels:
Format in all cases: biochemical
[1] = target: T1, baculovirus-expressed ALK (Homo sapiens, UniProt Q9UM73); test: ALK Kinase Assay (ELISA/TRF); settings: 1 μM ATP (Km level); average of two or more determinations; class symbols
T1 construct: host or cells: baculovirus expression system
T1 sequence (Q9UM73 19-1620): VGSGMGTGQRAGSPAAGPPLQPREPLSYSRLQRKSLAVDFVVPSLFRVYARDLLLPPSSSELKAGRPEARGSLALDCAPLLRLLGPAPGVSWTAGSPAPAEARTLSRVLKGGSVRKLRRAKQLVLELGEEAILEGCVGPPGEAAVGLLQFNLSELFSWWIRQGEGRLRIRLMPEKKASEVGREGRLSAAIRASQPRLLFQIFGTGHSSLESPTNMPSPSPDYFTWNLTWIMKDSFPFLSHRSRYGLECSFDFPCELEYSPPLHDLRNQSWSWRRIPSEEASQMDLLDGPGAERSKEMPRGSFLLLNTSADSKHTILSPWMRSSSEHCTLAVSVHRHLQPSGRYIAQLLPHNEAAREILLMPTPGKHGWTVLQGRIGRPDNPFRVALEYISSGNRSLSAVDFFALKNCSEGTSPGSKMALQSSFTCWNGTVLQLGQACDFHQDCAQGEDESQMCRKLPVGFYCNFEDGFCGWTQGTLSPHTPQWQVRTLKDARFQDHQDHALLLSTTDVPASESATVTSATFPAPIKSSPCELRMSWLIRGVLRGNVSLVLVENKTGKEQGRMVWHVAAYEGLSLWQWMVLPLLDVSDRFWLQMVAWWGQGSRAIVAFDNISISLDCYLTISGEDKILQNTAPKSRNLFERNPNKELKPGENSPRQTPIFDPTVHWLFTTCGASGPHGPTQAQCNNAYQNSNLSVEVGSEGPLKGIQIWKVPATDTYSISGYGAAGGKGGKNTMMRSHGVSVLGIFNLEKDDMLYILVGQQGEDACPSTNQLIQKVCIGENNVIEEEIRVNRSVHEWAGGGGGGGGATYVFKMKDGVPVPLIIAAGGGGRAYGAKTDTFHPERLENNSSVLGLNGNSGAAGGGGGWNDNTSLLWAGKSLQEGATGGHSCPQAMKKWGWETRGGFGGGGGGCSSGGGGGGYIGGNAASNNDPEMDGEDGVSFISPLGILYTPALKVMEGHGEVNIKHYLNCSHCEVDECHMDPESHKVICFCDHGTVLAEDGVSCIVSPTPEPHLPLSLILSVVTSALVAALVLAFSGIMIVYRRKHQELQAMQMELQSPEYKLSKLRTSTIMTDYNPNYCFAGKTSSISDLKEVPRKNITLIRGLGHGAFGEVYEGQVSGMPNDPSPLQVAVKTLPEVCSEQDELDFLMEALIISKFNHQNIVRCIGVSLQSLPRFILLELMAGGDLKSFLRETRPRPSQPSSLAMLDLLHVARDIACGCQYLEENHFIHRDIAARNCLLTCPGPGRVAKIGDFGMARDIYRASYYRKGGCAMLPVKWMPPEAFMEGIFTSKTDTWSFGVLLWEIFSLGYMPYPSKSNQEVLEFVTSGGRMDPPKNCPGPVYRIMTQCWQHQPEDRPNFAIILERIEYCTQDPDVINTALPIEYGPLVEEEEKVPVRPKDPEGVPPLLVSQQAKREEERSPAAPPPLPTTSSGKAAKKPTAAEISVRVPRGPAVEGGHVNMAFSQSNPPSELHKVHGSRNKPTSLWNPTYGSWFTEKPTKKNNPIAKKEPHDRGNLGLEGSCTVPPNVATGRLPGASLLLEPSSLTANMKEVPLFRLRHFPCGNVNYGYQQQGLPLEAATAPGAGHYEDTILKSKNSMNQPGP
Method: Briefly, each 96-well plate was coated with 100 μL/well of 10 μg/mL substrate (GST-PLC-γ) in Tris-buffered saline (TBS). […] The reaction was initiated by adding enzyme (30 ng/mL ALK) and was allowed to proceed at 37° C. for 15 minutes. Detection of the phosphorylated product was performed by adding 100 μL/well of Eu—N1 labeled PT66 antibody (Perkin Elmer #AD0041). […] Data analysis was performed using ActivityBase (IDBS, Guilford, UK). IC50 values were calculated by plotting percent inhibition versus log10 of the concentration of compound and fitting to the nonlinear regression sigmoidal dose-response (variable slope) equation in XLFit (IDBS, Guilford, UK).

[2] = target: T2, baculovirus-expressed JAK2 (Homo sapiens, UniProt O60674); test: JAK2 Kinase Assay (TRF detection); settings: 0.2 μM ATP; average of two or more determinations; class symbols
T2 construct: host or cells: baculovirus expression system
T2 sequence (O60674 whole entry): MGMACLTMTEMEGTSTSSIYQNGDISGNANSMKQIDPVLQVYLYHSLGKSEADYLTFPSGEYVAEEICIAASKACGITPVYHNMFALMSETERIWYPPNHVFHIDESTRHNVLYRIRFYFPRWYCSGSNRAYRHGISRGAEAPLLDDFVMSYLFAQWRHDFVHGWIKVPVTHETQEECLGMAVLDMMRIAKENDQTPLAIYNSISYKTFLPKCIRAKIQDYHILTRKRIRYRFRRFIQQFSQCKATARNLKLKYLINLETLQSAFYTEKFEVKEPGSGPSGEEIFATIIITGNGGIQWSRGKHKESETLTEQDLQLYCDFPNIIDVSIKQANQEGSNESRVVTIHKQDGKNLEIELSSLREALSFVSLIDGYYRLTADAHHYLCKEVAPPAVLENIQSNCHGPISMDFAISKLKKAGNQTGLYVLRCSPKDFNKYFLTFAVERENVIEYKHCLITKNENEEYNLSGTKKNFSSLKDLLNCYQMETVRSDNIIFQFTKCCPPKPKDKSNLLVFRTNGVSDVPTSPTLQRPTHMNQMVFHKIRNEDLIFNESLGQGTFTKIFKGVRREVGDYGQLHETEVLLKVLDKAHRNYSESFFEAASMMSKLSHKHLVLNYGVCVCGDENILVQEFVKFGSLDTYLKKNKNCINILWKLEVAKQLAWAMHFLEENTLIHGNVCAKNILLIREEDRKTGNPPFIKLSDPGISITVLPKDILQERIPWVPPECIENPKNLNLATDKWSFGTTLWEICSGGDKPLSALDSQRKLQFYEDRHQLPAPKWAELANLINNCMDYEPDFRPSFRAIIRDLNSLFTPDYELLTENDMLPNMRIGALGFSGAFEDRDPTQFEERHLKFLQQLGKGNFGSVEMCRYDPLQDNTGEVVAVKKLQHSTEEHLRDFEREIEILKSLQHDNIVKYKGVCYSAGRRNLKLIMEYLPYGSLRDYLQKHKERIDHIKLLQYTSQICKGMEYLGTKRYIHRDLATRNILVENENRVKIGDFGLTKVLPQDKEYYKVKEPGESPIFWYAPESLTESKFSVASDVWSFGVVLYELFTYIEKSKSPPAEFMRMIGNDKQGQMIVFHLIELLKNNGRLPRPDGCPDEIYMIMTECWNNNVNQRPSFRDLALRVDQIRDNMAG
Method: Compounds were tested for their ability to inhibit the kinase activity of baculovirus-expressed JAK2 using the TRF detection system. IC50 runs were conducted in 96-well Costar high binding plates (Corning Costar #3922, Corning, N.Y.). The plates were coated first with 100 μL/well of 10 μg/mL Neutravidin (Pierce #31000, Rockford, Ill.) in TBS at 37° C. for 2 hours, followed by 100 μL/well of 1 μg/mL 15-mer peptide substrate (biotinyl-amino-hexanoyl-EQEDEPEGDYFEWLE-amide, Infinity Biotech Research and Resource, Aston, Pa.) at 37° C. for another hour. The JAK2 assay mixture (total volume=100 μL/well) consisting of 20 mM HEPES, pH 7.2, 0.2 μM ATP, 1 mM MnCl2, 0.1% BSA, and test compound (diluted in DMSO; 2.5% DMSO final in assay) was then added to the assay plate. Enzyme (15 ng/ml JAK2) was added and the reaction was allowed to proceed at room temperature for 20 minutes. Detection of the phosphorylated product was performed by adding 100 μL/well of Eu—N1 labeled PY100 antibody (PerkinElmer Life Sciences #AD0041, Boston, Mass.). Incubation at the room temperature then proceeded for 1 hour, followed by addition of 100 μl enhancement solution (PerkinElmer Life Sciences #1244-105, Boston, Mass.). The plate was gently agitated and after thirty minutes, the fluorescence of the resulting solution was measured using the PerkinElmer EnVision™ 2102 (or 2104) multi-label plate reader.
(§1) Data analysis was performed using ActivityBase (IDBS, Guilford, UK). IC50 values were calculated by plotting percent inhibition versus log10 of the concentration of compound and fitting to the nonlinear regression sigmoidal dose-response (variable slope) equation in XLFit (IDBS, Guilford, UK).

recombinant human FAK = target: T3, recombinant human FAK (Homo sapiens, UniProt Q05397); test: FAK Enzyme Assay (TRF detection); settings: 10 μM ATP; average of two or more determinations; class symbols
T3 construct: purchased Invitrogen PV3832; host or cells: baculovirus expression system
T3 sequence (Q05397 whole entry): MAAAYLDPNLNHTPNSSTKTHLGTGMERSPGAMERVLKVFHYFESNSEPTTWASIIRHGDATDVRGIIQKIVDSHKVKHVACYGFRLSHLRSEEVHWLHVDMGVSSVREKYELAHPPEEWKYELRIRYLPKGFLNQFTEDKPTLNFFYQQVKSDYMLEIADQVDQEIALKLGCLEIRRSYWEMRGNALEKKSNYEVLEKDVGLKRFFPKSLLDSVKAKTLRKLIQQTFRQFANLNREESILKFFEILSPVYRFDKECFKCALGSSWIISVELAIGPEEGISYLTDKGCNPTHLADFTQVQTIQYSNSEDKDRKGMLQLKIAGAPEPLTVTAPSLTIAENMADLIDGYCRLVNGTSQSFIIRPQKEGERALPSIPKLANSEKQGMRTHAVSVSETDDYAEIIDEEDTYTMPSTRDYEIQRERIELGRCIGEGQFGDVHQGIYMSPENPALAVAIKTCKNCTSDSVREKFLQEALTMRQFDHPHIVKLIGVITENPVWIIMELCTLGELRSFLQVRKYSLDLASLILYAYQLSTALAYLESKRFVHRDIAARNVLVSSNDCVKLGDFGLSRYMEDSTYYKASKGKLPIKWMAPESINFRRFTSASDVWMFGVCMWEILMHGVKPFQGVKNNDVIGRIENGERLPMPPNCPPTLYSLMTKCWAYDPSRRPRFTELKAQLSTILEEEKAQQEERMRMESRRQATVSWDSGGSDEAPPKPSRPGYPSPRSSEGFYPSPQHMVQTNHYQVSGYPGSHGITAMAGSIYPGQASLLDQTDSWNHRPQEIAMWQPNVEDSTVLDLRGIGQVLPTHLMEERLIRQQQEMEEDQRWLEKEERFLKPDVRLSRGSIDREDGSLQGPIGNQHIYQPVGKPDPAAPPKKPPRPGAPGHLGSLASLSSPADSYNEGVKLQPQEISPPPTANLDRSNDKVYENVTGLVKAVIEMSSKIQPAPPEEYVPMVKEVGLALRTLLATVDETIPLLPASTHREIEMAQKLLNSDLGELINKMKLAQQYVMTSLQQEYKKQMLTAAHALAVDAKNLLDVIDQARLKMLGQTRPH
Method: Example compounds were tested for their ability to inhibit the kinase activity of baculovirus-expressed recombinant human FAK using the TRF detection system as described above for JAK2. IC50 runs were performed in 96-well Costar high binding plates (#3922). The plates were coated first with 100 μL/well of 10 μg/mL neutravidin in TBS at 37° C. for 2 h, followed by 100 μL/well of 1 μg/mL 15-mer peptide substrate (biotinyl-amino-hexanoyl-EQEDEPEGDYFEWLE-amide) at 37° C. for another hour. The FAK assay mixture (total volume=100 μL/well) consisting of 20 mM HEPES, pH 7.2, 10 μM ATP, 5 mM MgCl2, 0.5 mM DTT, 0.1% BSA, and test compound (diluted in DMSO; 2.5% DMSO final in assay) was then added to the assay plate. Enzyme (10 ng/mL FAK, Invitrogen #PV3832) was added and the reaction was allowed to proceed at room temperature for 30 minutes. Detection of the phosphorylated product was performed by adding 100 μL/well of Eu—N1 labeled PY100 antibody (diluted 1:75000 in antibody dilution buffer). Samples were incubated at room temperature for 1 hour, followed by addition of 100 μL enhancement solution. Plates were agitated for 10 minutes and fluorescence of the resulting solution measured using the PerkinElmer EnVision™ 2102 (or 2104) multi-label plate reader.
as §1

[3] = target: T4, human insulin receptor cytoplasmic domain (βIRCD) (Homo sapiens, UniProt P06213); test: Insulin Receptor Kinase Assay (TRF); settings: 20 μM ATP, read-out: IR IC50
T4 construct: human insulin receptor cytoplasmic domain (βIRCD); host or cells: baculovirus expression system
T4 sequence (P06213 980-1382 limits assumed): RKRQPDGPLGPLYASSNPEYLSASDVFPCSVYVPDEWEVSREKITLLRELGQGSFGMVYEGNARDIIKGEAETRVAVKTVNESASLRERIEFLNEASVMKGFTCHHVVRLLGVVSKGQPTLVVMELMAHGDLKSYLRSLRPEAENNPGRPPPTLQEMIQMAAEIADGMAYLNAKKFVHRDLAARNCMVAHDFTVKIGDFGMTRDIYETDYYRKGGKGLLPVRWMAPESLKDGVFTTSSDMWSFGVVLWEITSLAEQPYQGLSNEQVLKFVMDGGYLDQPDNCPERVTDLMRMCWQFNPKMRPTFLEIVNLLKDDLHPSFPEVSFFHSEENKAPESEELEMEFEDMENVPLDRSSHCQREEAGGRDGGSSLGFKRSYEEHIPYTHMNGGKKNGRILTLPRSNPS
Method: Example compounds were tested for their ability to inhibit the kinase activity of baculovirus-expressed human insulin receptor cytoplasmic domain (βIRCD) using the TRF assay as described above for ALK. Phosphorylation of the substrate, recombinant GST-PLC-γ, was detected with a europium-labeled anti-phosphotyrosine antibody and measured by TRF. Each 96-well plate (Greiner#655074) was coated with 100 μL/well of 20 μg/mL substrate solution in TBS. The IR assay mixture (total volume=100 μL/well) consisting of 20 mM HEPES (pH 7.2), 20 μM ATP, 5 mM MnCl2, 0.1% BSA, and test compound (diluted in DMSO; 2.5% DMSO final in assay) was added to the assay plates. Enzyme (20 ng/mL βIRCD) was added and the reaction was allowed to proceed at room temperature for 20 minutes. Detection of the phosphorylated product was performed by adding 100 μL/well of Eu—N1 labeled PY100 antibody (PerkinElmer#AD0160; diluted 1:10,000 in TBS-T containing 0.25% BSA). Incubation at 37° C. for 1 hour was followed by addition of 50 μL enhancement solution (Wallace#1244-105). Plates were agitated for 10 minutes and the fluorescence was measured using the PerkinElmer EnVision™ 2102 or 2104 multi-label plate reader.
as §1

[4] = average of two or more determinations, class symbols

| SMILES | IC50 [1] | IC50 [2] | IC50 (recombinant human FAK) | IC50 [3, 4] | IC50 ([3]; given as numeric bound) |
| --- | --- | --- | --- | --- | --- |
| O=C1Nc2cccc(c2)Nc2ncc(Cl)c(n2)Nc2cccc1c2 [Example 1, 6,13,19-Triaza-4-chloro-7,14^1,3-dibenzena-1^2,4-pyrimidinacyclodocosaph-12-one] | > 10000 nM | 101 to 1000 nM | > 10000 nM | – | – |
| CN1CCN(c2ccc3cc2/C=C\c2cccc(c2)Nc2nc(ncc2Cl)N3)CC1 [Example 2, (14Z)-6-Chloro-17-(4-methylpiperazin-1-yl)-2,4,8,22-tetraazatetracyclo[14.3.1.1^3,7.1^9,13]docosa-1(20),3(22),4,6,9(21),10,12,14,16,18-decaene] | – | < 10 nM | 101 to 1000 nM | 1000 to 10000 nM | – |
| CN1CCN(c2ccc3cc2CCc2cccc(c2)Nc2nc(ncc2Cl)N3)CC1 [Example 3, 6-Chloro-17-(4-methylpiperazin-1-yl)-2,4,8,22-tetraazatetracyclo[14.3.1.1^3,7.1^9,13]docosa-1(20),3(22),4,6,9(21),10,12,16,18-nonaene Trifluoroacetate (1:1)] | – | < 10 nM | 101 to 1000 nM | 101 to 1000 nM | – |
| COc1cc(N2CCN(C)CC2)c2cc1Nc1ncc(Cl)c(n1)Nc1cc(ccc1N(C)S(C)(=O)=O)CC2 [Example 5, 6-Chloro-10-(2-methanesulfonyl-methyl-amino)-17-(4-methylpiperazin-1-yl)-19-methoxy-2,4,8,22-tetraazatetracyclo[14.3.1.1^3,7.1^9,13]docosa-1(20),3(22),4,6,9(21),10,12,16,18-nonaene Trifluoroacetate (1:1)] | – | 10 to 100 nM | < 10 nM | 10 to 100 nM | – |
| COc1cc(N2CCN(C)CC2)c2cc1Nc1ncc(Cl)c(n1)Nc1cc(ccc1S(=O)(=O)C(C)C)CC2 [Example 6, 6-Chloro-10-(propane-2-sulfonyl)-17-(4-methylpiperazin-1-yl)-19-methoxy-2,4,8,22-tetraazatetracyclo[14.3.1.1^3,7.1^9,13]docosa-1(20),3(22),4,6,9(21),10,12,16,18-nonaene Trifluoroacetate (1:1)] | – | 101 to 1000 nM | < 10 nM | 10 to 100 nM | – |
| CN1CCN(c2ccc3cc2CCc2ccc(N(C)S(C)(=O)=O)c(c2)Nc2nc(ncc2Cl)N3)CC1 [Example 10, 6-Chloro-10-(2-methanesulfonyl-methyl-amino)-17-(4-methylpiperazin-1-yl)-2,4,8,22-tetraazatetracyclo[14.3.1.1^3,7.1^9,13]docosa-1(20),3(22),4,6,9(21),10,12,16,18-nonaene Trifluoroacetate (1:1)] | – | < 10 nM | < 10 nM | 101 to 1000 nM | – |
| COc1ccc2cc1Nc1nc(ncc1Cl)Nc1ccc(N3CCN(C)CC3)c(c1)/C=C\2 [Example 13, (14Z)-6-Chloro-10-methoxy-17-(4-methylpiperazin-1-yl)-2,4,8,22-tetraazatetracyclo[14.3.1.1^3,7.1^9,13]docosa-1(20),3(22),4,6,9(21),10,12,14,16,18-decaene] | – | 10 to 100 nM | 101 to 1000 nM | – | > 3000 nM |
| COc1ccc2cc1Nc1nc(ncc1Cl)Nc1ccc(N3CCN(C)CC3)c(c1)CC2 [Example 14, 6-Chloro-10-methoxy-17-(4-methylpiperazin-1-yl)-2,4,8,22-tetraazatetracyclo[14.3.1.1^3,7.1^9,13]docosa-1(20),3(22),4,6,9(21),10,12,16,18-nonaene Trifluoroacetate (1:1)] | – | < 10 nM | 10 to 100 nM | 101 to 1000 nM | – |
| COc1cc(N2CCN(C)CC2)c2cc1Nc1ncc(Cl)c(n1)Nc1cccc(c1)CC2 [Example 15, 6-Chloro-17-(4-methylpiperazin-1-yl)-19-methoxy-2,4,8,22-tetraazatetracyclo[14.3.1.1^3,7.1^9,13]docosa-1(20),3(22),4,6,9(21),10,12,16,18-nonaene Trifluoroacetate (1:1)] | – | 10 to 100 nM | 101 to 1000 nM | 101 to 1000 nM | – |
| CNC(=O)c1ccc2cc1Nc1nc(ncc1Cl)Nc1ccc(N3CCN(C)CC3)c(c1)/C=C\2 [Example 16, (14Z)-6-Chloro-10-(N-methylcarboxamido)-17-(4-methylpiperazin-1-yl)-2,4,8,22-tetraazatetracyclo[14.3.1.1^3,7.1^9,13]docosa-1(20),3(22),4,6,9(21),10,12,14,16,18-decaene] | 101 to 1000 nM | 10 to 100 nM | 101 to 1000 nM | – | – |
| CNC(=O)c1ccc2cc1Nc1nc(ncc1Cl)Nc1ccc(N3CCN(C)CC3)c(c1)CC2 [Example 17, 6-Chloro-10-(N-methylcarboxamido)-17-(4-methylpiperazin-1-yl)-2,4,8,22-tetraazatetracyclo[14.3.1.1^3,7.1^9,13]docosa-1(20),3(22),4,6,9(21),10,12,16,18-nonaene Trifluoroacetate (1:1)] | – | < 10 nM | < 10 nM | 101 to 1000 nM | – |
| CN1CCN(c2ccc3cc2/C=C\c2ccc(S(C)(=O)=O)c(c2)Nc2nc(ncc2Cl)N3)CC1 [Example 18, (14Z)-6-Chloro-10-(methanesulfonyl)-17-(4-methylpiperazin-1-yl)-2,4,8,22-tetraazatetracyclo[14.3.1.1^3,7.1^9,13]docosa-1(20),3(22),4,6,9(21),10,12,14,16,18-decaene Trifluoroacetate (1:1)] | 101 to 1000 nM | 10 to 100 nM | 10 to 100 nM | – | – |
| Clc1cnc2nc1Nc1cccc(c1)CCc1cc(ccc1OCCN1CCCC1)N2 [Example 23, 6-Chloro-17-[2-(pyrrolidin-1-yl)ethoxy]-2,4,8,22-tetraazatetracyclo[14.3.1.1^3,7.1^9,13]docosa-1(20),3(22),4,6,9(21),10,12,16,18-nonaene Trifluoroacetate (1:1)] | – | < 10 nM | 10 to 100 nM | 101 to 1000 nM | – |
| CN1CCN(c2ccc3cc2[C@H](O)[C@H](O)c2cccc(c2)Nc2nc(ncc2Cl)N3)CC1 [Example 27, (14R,15S)-6-chloro-17-(4-methylpiperazin-1-yl)-2,4,8,22-tetraazatetracyclo[14.3.1.1^3,7.1^9,13]docosa-1(20),3(22),4,6,9(21),10,12,16,18-nonaene-14,15-diol] | – | 10 to 100 nM | 1000 to 10000 nM | – | – |
